In paper PMC13185819, “De Novo Multi‐Mechanism Antimicrobial Peptide Design via Multimodal Deep Learning” (Advanced Science, 2026):
Converted amounts (≈) assume the structure as drawn. Residues, ends and D or L forms follow the SMILES beside them.

What was measured:
Type in all cases: cell-based
[1] = tested on: E. faecium 1042
Procedure: (§1) Standard strains included S. aureus ATCC33592, S. aureus CICC25138, and Salmonella enterica ATCC14028, which were purchased from the China Center of Industrial Culture Collection (CICC). Standard strains including E.coli CMCC44102, Salmonella enterica CMCC50071, and S. aureus CMCC26003 were purchased from the National Center for Medical Culture Collections (CMCC). […] All experiments using the above strains were carried out in a BSL‐2 laboratory. The clinical laboratory of Qilu Hospital detected bacterial resistance to various antibiotics. All strains were streaked on Nutrient Broth (NB) agar medium and incubated overnight at 37°C.
(§2) The antimicrobial activity of the peptides was examined in sterile 96‐well plates using the broth microdilution according to the CLSI standard. The colonies were suspended in saline solution, the turbidity was adjusted to McFarland 0.5 to reach a bacterial concentration of 10^8 CFU/mL, and again diluted 100 times for the inhibition test. Then, 50 µL of bacterial suspension at 1 × 10^6 CFU/mL was incubated with the same volume of different concentrations of peptide solution [serial twofold dilutions in Mueller–Hinton Broth (Hopebio)]. […] All experiments were performed with three independent replicates.

[2] = tested on: E. faecium 21
Procedure: as §1, §2

[3] = tested on: E.coli 110
Procedure: as §1, §2

[4] = tested on: E.coli 208
Procedure: as §1, §2

[5] = tested on: K. pneumoniae 7713
Procedure: as §1, §2

[6] = tested on: P. aeruginosa 112
Procedure: as §1, §2

[7] = tested on: P. aeruginosa 116
Procedure: as §1, §2

[8] = tested on: P. aeruginosa 119
Procedure: as §1, §2

[9] = tested on: S. aureus 103
Procedure: as §1, §2

[10] = tested on: S. aureus 129
Procedure: as §1, §2

[11] = tested on: S. aureus ATCC33592
Procedure: as §1, §2

[12] = tested on: S. aureus CICC25138
Procedure: as §1, §2

CC[C@H](C)[C@H](NC(=O)[C@H](CCCCN)NC(=O)[C@H](Cc1c[nH]c2ccccc12)NC(=O)[C@@H](N)CCCCN)C(=O)N[C@@H](CCCCN)C(=O)N[C@@H](CCC(N)=O)C(=O)N[C@@H](Cc1c[nH]c2ccccc12)C(=O)N[C@H](C(=O)N[C@@H](CCCNC(=N)N)C(=O)N[C@@H](Cc1c[nH]c2ccccc12)C(=O)N[C@@H](Cc1ccccc1)C(=O)N[C@@H](CCCNC(=N)N)C(=O)N[C@@H](CCCCN)C(=O)N[C@@H](CC(C)C)C(N)=O)C(C)C [QLX-3DV-6] (H-KWKIKQWVRWFRKL-NH2)
MIC (μg/mL) E. faecium 1042 [1]: 8 µg/mL (≈ 4 µM)
MIC (μg/mL) E. faecium 21 [2]: 8 µg/mL (≈ 4 µM)
MIC (μg/mL) E.coli 110 [3]: 8 µg/mL (≈ 4 µM)
MIC (μg/mL) E.coli 208 [4]: 4 µg/mL (≈ 2 µM)
MIC (μg/mL) K. pneumoniae 7713 [5]: 16 µg/mL (≈ 7.99 µM)
MIC (μg/mL) P. aeruginosa 112 [6]: 32 µg/mL (≈ 16 µM)
MIC (μg/mL) P. aeruginosa 116 [7]: 16 µg/mL (≈ 7.99 µM)
MIC (μg/mL) P. aeruginosa 119 [8]: 128 µg/mL (≈ 64 µM)
MIC (μg/mL) S. aureus 103 [9]: 16 µg/mL (≈ 7.99 µM)
MIC (μg/mL) S. aureus 129 [10]: 16 µg/mL (≈ 7.99 µM)
MIC (μg/mL) S. aureus ATCC33592 [11]: 16 µg/mL (≈ 7.99 µM)
MIC (μg/mL) S. aureus CICC25138 [12]: 16 µg/mL (≈ 7.99 µM)

CC[C@H](C)[C@H](NC(=O)[C@H](CCCCN)NC(=O)[C@H](CCCNC(=N)N)NC(=O)[C@@H](N)CCCCN)C(=O)N[C@@H](CCCCN)C(=O)N[C@@H](Cc1c[nH]c2ccccc12)C(=O)N[C@@H](CCCCN)C(=O)N[C@H](C(=O)N[C@@H](CCCNC(=N)N)C(=O)N[C@@H](Cc1c[nH]c2ccccc12)C(=O)N[C@@H](Cc1ccccc1)C(=O)N[C@H](C(=O)N[C@@H](Cc1ccc(O)cc1)C(=O)N[C@@H](CC(C)C)C(N)=O)[C@@H](C)O)C(C)C [QLX-3DV-7] (H-KRKIKWKVRWFTYL-NH2)
MIC (μg/mL) E. faecium 1042 [1]: 8 µg/mL (≈ 4.1 µM)
MIC (μg/mL) E. faecium 21 [2]: 8 µg/mL (≈ 4.1 µM)
MIC (μg/mL) E.coli 110 [3]: 16 µg/mL (≈ 8.2 µM)
MIC (μg/mL) E.coli 208 [4]: 32 µg/mL (≈ 16.4 µM)
MIC (μg/mL) K. pneumoniae 7713 [5]: 16 µg/mL (≈ 8.2 µM)
MIC (μg/mL) P. aeruginosa 112 [6]: 32 µg/mL (≈ 16.4 µM)
MIC (μg/mL) P. aeruginosa 116 [7]: 8 µg/mL (≈ 4.1 µM)
MIC (μg/mL) P. aeruginosa 119 [8]: 64 µg/mL (≈ 32.8 µM)
MIC (μg/mL) S. aureus 103 [9]: 16 µg/mL (≈ 8.2 µM)
MIC (μg/mL) S. aureus 129 [10]: 16 µg/mL (≈ 8.2 µM)
MIC (μg/mL) S. aureus ATCC33592 [11]: 16 µg/mL (≈ 8.2 µM)
MIC (μg/mL) S. aureus CICC25138 [12]: 16 µg/mL (≈ 8.2 µM)

CC[C@H](C)[C@H](NC(=O)[C@H](CCCCN)NC(=O)[C@H](CCCNC(=N)N)NC(=O)[C@@H](N)CCCCN)C(=O)N[C@@H](CCCCN)C(=O)N[C@@H](Cc1c[nH]c2ccccc12)C(=O)N[C@@H](Cc1c[nH]c2ccccc12)C(=O)N[C@H](C(=O)N[C@@H](CCCNC(=N)N)C(=O)N[C@@H](Cc1c[nH]c2ccccc12)C(=O)N[C@H](C(=O)N[C@H](C(=O)N[C@@H](CCCCN)C(=O)N[C@@H](CC(C)C)C(N)=O)[C@@H](C)O)[C@@H](C)CC)C(C)C [QLX-3DV-8] (H-KRKIKWWVRWITKL-NH2)
MIC (μg/mL) E. faecium 1042 [1]: 8 µg/mL (≈ 4.12 µM)
MIC (μg/mL) E. faecium 21 [2]: 4 µg/mL (≈ 2.06 µM)
MIC (μg/mL) K. pneumoniae 7713 [5]: 8 µg/mL (≈ 4.12 µM)
MIC (μg/mL) P. aeruginosa 112 [6]: 16 µg/mL (≈ 8.25 µM)
MIC (μg/mL) P. aeruginosa 116 [7]: 8 µg/mL (≈ 4.12 µM)
MIC (μg/mL) P. aeruginosa 119 [8]: 32 µg/mL (≈ 16.5 µM)
MIC (μg/mL) S. aureus 103 [9]: 8 µg/mL (≈ 4.12 µM)
MIC (μg/mL) S. aureus 129 [10]: 8 µg/mL (≈ 4.12 µM)
MIC (μg/mL) S. aureus CICC25138 [12]: 16 µg/mL (≈ 8.25 µM)

CC[C@H](C)[C@H](NC(=O)[C@H](CCCCN)NC(=O)[C@H](Cc1c[nH]c2ccccc12)NC(=O)[C@@H](N)CCCCN)C(=O)N[C@@H](CCCCN)C(=O)N[C@@H](Cc1c[nH]c2ccccc12)C(=O)N[C@@H](CCCNC(=N)N)C(=O)N[C@H](C(=O)N[C@@H](CCCNC(=N)N)C(=O)N[C@@H](Cc1c[nH]c2ccccc12)C(=O)N[C@@H](Cc1ccccc1)C(=O)N[C@@H](CCCCN)C(=O)N[C@@H](CC(C)C)C(=O)N[C@@H](CC(C)C)C(N)=O)C(C)C [QLX-3DV-9] (H-KWKIKWRVRWFKLL-NH2)
MIC (μg/mL) E. faecium 1042 [1]: 2 µg/mL (≈ 1.01 µM)
MIC (μg/mL) E. faecium 21 [2]: 2 µg/mL (≈ 1.01 µM)
MIC (μg/mL) E.coli 110 [3]: 8 µg/mL (≈ 4.03 µM)
MIC (μg/mL) E.coli 208 [4]: 16 µg/mL (≈ 8.05 µM)
MIC (μg/mL) K. pneumoniae 7713 [5]: 16 µg/mL (≈ 8.05 µM)
MIC (μg/mL) P. aeruginosa 112 [6]: 16 µg/mL (≈ 8.05 µM)
MIC (μg/mL) P. aeruginosa 116 [7]: 4 µg/mL (≈ 2.01 µM)
MIC (μg/mL) P. aeruginosa 119 [8]: 16 µg/mL (≈ 8.05 µM)
MIC (μg/mL) S. aureus 103 [9]: 8 µg/mL (≈ 4.03 µM)
MIC (μg/mL) S. aureus 129 [10]: 8 µg/mL (≈ 4.03 µM)
MIC (μg/mL) S. aureus ATCC33592 [11]: 16 µg/mL (≈ 8.05 µM)
MIC (μg/mL) S. aureus CICC25138 [12]: 8 µg/mL (≈ 4.03 µM)
